Data from ChEMBL document CHEMBL1149222, “Synthesis and in vitro antimycobacterial activity of novel 3-(1H-pyrrol-1-yl)-2-oxazolidinone analogues of PNU-100480” (2004).
≈ marks a conversion by molar mass, not a printed value.

What was measured:
Type in all cases: functional
[1] = system: Mycolicibacterium fortuitum; assay: In vitro anti-mycobacterial activity against Mycobacterium fortuitum was determined
[2] = system: Mycobacterium tuberculosis; assay: In vitro anti-mycobacterial activity against Mycobacterium tuberculosis ATCC 27294 was determined
[3] = system: Mycobacterium tuberculosis; assay: In vitro anti-mycobacterial activity against Mycobacterium tuberculosis C.I. 1104 was determined
[4] = system: Mycolicibacterium smegmatis; assay: In vitro anti-mycobacterial activity against Mycobacterium smegmatis was determined
Mycobacterium [5] = assay: In vitro anti-mycobacterial activity against Mycobacterium avium complex was determined
[6] = system: Mycolicibacterium smegmatis; assay: (§1) In vitro anti-mycobacterial activity against Mycobacterium smegmatis determined by the MTT method
Mycobacterium [7] = assay: as §1
[8] = system: Mycobacterium tuberculosis; assay: In vitro anti-mycobacterial activity against Mycobacterium tuberculosis C.I. 1104, determined by the MTT method
MT4 = assay: Cytotoxicity of compound against mock-infected MT-4 cells was evaluated by MTT assay; conditions: Homo sapiens
[9] = system: Mycobacterium tuberculosis; assay: In vitro anti-mycobacterial activity against Mycobacterium tuberculosis ATCC 27294, determined by the MTT method
[10] = system: Mycolicibacterium fortuitum; assay: In vitro anti-mycobacterial activity against Mycobacterium fortuitum determined by the MTT method

CC(=O)NC[C@H]1CN(c2ccn(-c3ccc(N4CCOCC4)c(F)c3)c2)C(=O)O1
MIC50 [1]: > 100 µM
MIC50 [2]: 12.9 µM (≈ 5.19 µg/mL)
MIC50 [3]: 49 µM (≈ 19.7 µg/mL)
MIC50 [4]: 42.6 µM (≈ 17.1 µg/mL)
MIC50 (Mycobacterium [5]): 16.5 µM (≈ 6.64 µg/mL)
MIC90 [6]: > 100 µM
MIC90 (Mycobacterium [7]): 100 µM (≈ 40.2 µg/mL)
MIC90 [8]: > 100 µM
CC50 (MT4): > 100 µM
MIC90 [9]: 100 µM (≈ 40.2 µg/mL)

CC(=O)NC[C@H]1CN(c2ccn(-c3ccc(N4CCSCC4)c(F)c3)c2)C(=O)O1
MIC50 [1]: > 100 µM
MIC50 [2]: 9.8 µM (≈ 4.1 µg/mL)
MIC50 [3]: 12.2 µM (≈ 5.11 µg/mL)
MIC50 [4]: 34 µM (≈ 14.2 µg/mL)
MIC50 (Mycobacterium [5]): 4.8 µM (≈ 2.01 µg/mL)
MIC90 [6]: > 100 µM
MIC90 (Mycobacterium [7]): 11.8 µM (≈ 4.94 µg/mL)
MIC90 [8]: 31 µM (≈ 13 µg/mL)
CC50 (MT4): 20 µM
MIC90 [9]: 25 µM (≈ 10.5 µg/mL)

CC(=O)NC[C@H]1CN(c2ccn(N3CCOCC3)c2)C(=O)O1
MIC50 [1]: > 1000 µM
MIC50 [2]: > 100 µM
MIC50 [3]: > 100 µM
MIC50 [4]: > 100 µM
MIC50 (Mycobacterium [5]): > 100 µM
CC50 (MT4): > 100 µM

CC(=O)NC[C@H]1CN(c2ccc(N3CCSCC3)c(F)c2)C(=O)O1 [SUTEZOLID]
MIC50 [1]: > 100 µM
MIC50 [2]: 0.1 µM (≈ 0.0353 µg/mL)
MIC50 [3]: 0.5 µM (≈ 0.177 µg/mL)
MIC50 [4]: 0.5 µM (≈ 0.177 µg/mL)
MIC50 (Mycobacterium [5]): 0.7 µM (≈ 0.247 µg/mL)
MIC90 [6]: 1.6 µM (≈ 0.565 µg/mL)
MIC90 (Mycobacterium [7]): 5 µM (≈ 1.77 µg/mL)
MIC90 [8]: 2.5 µM (≈ 0.884 µg/mL)
CC50 (MT4): > 100 µM
MIC90 [9]: 0.9 µM (≈ 0.318 µg/mL)

CC(=O)NC[C@H]1CN(c2ccn(-c3ccccc3F)c2)C(=O)O1
MIC50 [1]: 88.6 µM (≈ 28.1 µg/mL)
MIC50 [2]: 3.6 µM (≈ 1.14 µg/mL)
MIC50 [4]: 4.2 µM (≈ 1.33 µg/mL)
MIC50 (Mycobacterium [5]): 2 µM (≈ 0.635 µg/mL)
MIC90 [6]: 15.7 µM (≈ 4.98 µg/mL)
MIC90 (Mycobacterium [7]): 8.9 µM (≈ 2.82 µg/mL)
CC50 (MT4): 33.3 µM
MIC90 [10]: > 100 µM
MIC90 [9]: 24.7 µM (≈ 7.84 µg/mL)

CC(=O)NC[C@H]1CN(c2ccn(-c3cccc(F)c3)c2)C(=O)O1
MIC50 [1]: > 100 µM
MIC50 [2]: 12.9 µM (≈ 4.09 µg/mL)
MIC50 [3]: 9.4 µM (≈ 2.98 µg/mL)
MIC50 [4]: 14.5 µM (≈ 4.6 µg/mL)
MIC50 (Mycobacterium [5]): 4.6 µM (≈ 1.46 µg/mL)
MIC90 [6]: 56.3 µM (≈ 17.9 µg/mL)
MIC90 (Mycobacterium [7]): 39.8 µM (≈ 12.6 µg/mL)
MIC90 [8]: 76.9 µM (≈ 24.4 µg/mL)
CC50 (MT4): > 100 µM
MIC90 [9]: 91.4 µM (≈ 29 µg/mL)

NNC(=O)c1ccncc1 [ISONIAZID]
MIC50 [1]: > 100 µM
MIC50 [2]: 0.09 µM (≈ 0.0123 µg/mL)
MIC50 [3]: 0.06 µM (≈ 0.00823 µg/mL)
MIC50 [4]: 1.8 µM (≈ 0.247 µg/mL)
MIC50 (Mycobacterium [5]): 1.4 µM (≈ 0.192 µg/mL)
MIC90 [6]: 6.7 µM (≈ 0.919 µg/mL)
MIC90 (Mycobacterium [7]): 4.7 µM (≈ 0.645 µg/mL)
MIC90 [8]: 0.2 µM (≈ 0.0274 µg/mL)
CC50 (MT4): > 100 µM
MIC90 [9]: 9.8 µM (≈ 1.34 µg/mL)

CC(=O)NC[C@H]1CN(c2ccn(-c3ccc(F)cc3)c2)C(=O)O1
MIC50 [1]: > 100 µM
MIC50 [2]: 1.9 µM (≈ 0.603 µg/mL)
MIC50 [4]: 10.3 µM (≈ 3.27 µg/mL)
MIC50 (Mycobacterium [5]): 1.4 µM (≈ 0.444 µg/mL)
MIC90 [6]: 45.8 µM (≈ 14.5 µg/mL)
MIC90 (Mycobacterium [7]): 5.8 µM (≈ 1.84 µg/mL)
CC50 (MT4): 100 µM
MIC90 [9]: 19.7 µM (≈ 6.25 µg/mL)

CC(=O)NC[C@H]1CN(c2ccn(-c3ccccc3)c2)C(=O)O1
MIC50 [1]: > 100 µM
MIC50 [2]: 19 µM (≈ 5.69 µg/mL)
MIC50 [3]: 10.5 µM (≈ 3.14 µg/mL)
MIC50 [4]: 9.8 µM (≈ 2.93 µg/mL)
MIC50 (Mycobacterium [5]): 4 µM (≈ 1.2 µg/mL)
MIC90 [6]: 41.3 µM (≈ 12.4 µg/mL)
MIC90 (Mycobacterium [7]): 32.8 µM (≈ 9.82 µg/mL)
MIC90 [8]: 77.8 µM (≈ 23.3 µg/mL)
CC50 (MT4): > 100 µM
MIC90 [9]: 74 µM (≈ 22.2 µg/mL)
